Consider 1 compound from patent publication US20240358684A1, “METHOD FOR ENHANCING INNATE IMMUNE RESPONSE” (Kyoto University, priority 2021, published 2024).

In general, pIC50 refers to −log10 of the IC50, conventionally taken in molar units.

One assay deals with OAS1 splice variants. The experiment in a line: RNA-Seq splice-junction reads for OAS1 splice variants in Calu-3 cells. Particulars: Calu-3, 10 μM, 18 h. The format is cell-based, human. The procedure: Transcriptome analysis for compound 1-treated Calu-3 cells RNAs were extracted using RNeasy Mini kit (QIAGEN, Hilden, Germany) from Calu-3 cells, treated with 10 μM compound 1 or 0.1% DMSO for 18 h, and applied for RNA-Seq analysis. Three technical replicates for RNA-Seq, where each experiment was independently conducted three times from a stocked total RNA. RNA-seq reads were mapped to the human genome sequences (GRCh38) using STAR (ver. 2.7.1a, https://github.com/alexdobin/STAR) with ENCODE options, using the Ensembl genome annotation (ver. 102). Raw reads were counted with bam files, and TPM values were calculated using RSEM v1.2.31 (https://github.com/deweylab/RSEM). Differentially expressed genes were identified using the method described above. Differential alternative splicing (DAS) events were analyzed with the method previously described (Sakuma et al., 2015) using the rMATS program (http://rnaseq-mats.sourceforge.net/rmats4.1.1/). DAS was defined by the following criteria: FDR<0.01, read counts≥15, and delta Percent Spliced-In (PSI)≥0.05. The DAS events were compared with the gene annotation information, the event types were then classified into events on the exons constituting the productive mRNAs, events on additional exons/regions of the productive mRNAs, and others. For characterizing gene set and transcriptome profiles, the Metascape website (https://imetascape.org/) and Gene Set Enrichment Analysis (GSEA, https://ww.gsea-maigdb.org/gsea/) were used. The same samples were also used for RT-PCR.

Assay [1] deals with OAS1 rs10774671 A-allele splicing. Put plainly: RT-PCR for OAS1 alternative splicing profile in Calu-3 (A/A allele) cells. The format is cell-based, human. The conditions noted are these: Calu-3, 10 μM, 24 h.
The test system of a further assay is IFNB1. The class given is cell-based, human.
The subject of assay [2] is OAS1 exon 5 splice donor (SD) sequence. Put plainly: RNA pull-down assay with OAS1 exon 5 splice donor RNA and western blot. The class given is binding, human. The conditions noted are these: Calu-3 cell lysate, 10 μM. The procedure: Calu-3 whole cell lysates were prepared using a lysis buffer containing 10 mM Tris-HCl (pH 7.4), 150 mM NaCl, 1 mM ethylenediaminetetraacetic acid, 1% Triton X-100, 0.1% sodium dodecyl sulphate, 0.25% sodium deoxycholate, and 10% glycerol with protease inhibitors (Nacalai Tesque) and phosphatase inhibitors (Sigma-Aldrich, Munich, Germany), followed by sonication, treatment with DNase I (Promega. Madison, WI, USA) at 37° C. for 5 min, and centrifugation (24,000×g at 4° C. for 15 min). The supernatant was used as the soluble fraction for the RNA-pull down assay. […] This was followed by washing the resultant thrice with tris-buffered saline and elution with Laemmli buffer. Three technical replicates for RNA pull-down assay were independently conducted, three times from a stocked cell lysate. […] Chemiluminescent signals were detected using a ChemiDoc MP Imaging System (Bio-Rad, Hercules, CA, USA).

The subject of assay [3] is RNase L pathway (rRNA degradation).
The next assay has as its target T1, CLK2 (Homo sapiens, UniProt P49760).
T1 construct: Enzyme activity was measured with off-chip mobility shift assay using purified CLK protein
Put plainly: Inhibition confirmation test for CLK (off-chip mobility shift assay). Particulars: ATP 150 μM; read-out: CLK2 inhibitory activity (IC50 value). The format is biochemical. The procedure:
(§1) Enzyme activity was measured with off-chip mobility shift assay using purified CLK protein. DYRKtide-F peptide (1 μM) was used as a substrate, and a composition of a reaction solution used was as follows (20 mM HEPES (pH7.5), 0.01% Triton X-100, 1 mM DT7, 1% DMSO, and ATP (10 μM for CLK1, 150 μM for CLK2, and 75 μM for CLK3)). The enzyme reaction was performed at room temperature for 1 hour, and the reaction was terminated by adding QuickScout Screening Assist MSA (Carna Biosciences, Inc.). A substrate peptide and a phosphorylated peptide in the enzyme reaction solution were separated and quantified using the LabChip system (Perkin-Elmer, Waltham, MA, USA), and inhibition of CLK was evaluated by calculating a product ratio using the following formula, the substrate peptide peak height (S), and the phosphorylated peptide peak height (P).
(§2) (P/(P+S)) • P: product-derived peak • S: substrate-derived peak

A further assay has as its target T2, CLK3 (Homo sapiens, UniProt P49761).
T2 construct: Enzyme activity was measured with off-chip mobility shift assay using purified CLK protein
The assay is described as above. The format is biochemical. The conditions noted are these: ATP 75 μM; read-out: CLK3 inhibitory activity (IC50 value). Here is the method:
as §1, §2

pIC50: −log10 of the molar value.

T1 sequence (P49760 whole entry): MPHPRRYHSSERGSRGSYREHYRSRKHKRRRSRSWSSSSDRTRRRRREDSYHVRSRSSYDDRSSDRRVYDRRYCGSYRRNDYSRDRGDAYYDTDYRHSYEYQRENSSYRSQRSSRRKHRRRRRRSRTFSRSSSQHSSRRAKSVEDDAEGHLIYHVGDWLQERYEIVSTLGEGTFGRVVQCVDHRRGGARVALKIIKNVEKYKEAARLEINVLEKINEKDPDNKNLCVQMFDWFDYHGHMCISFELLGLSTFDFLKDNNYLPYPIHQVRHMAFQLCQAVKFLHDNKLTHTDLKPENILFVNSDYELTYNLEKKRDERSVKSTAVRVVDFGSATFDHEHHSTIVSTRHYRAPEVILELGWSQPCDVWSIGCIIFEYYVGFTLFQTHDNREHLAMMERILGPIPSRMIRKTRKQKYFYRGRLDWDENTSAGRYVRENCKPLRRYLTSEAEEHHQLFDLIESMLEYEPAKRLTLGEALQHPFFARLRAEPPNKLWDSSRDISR
T2 sequence (P49761 whole entry): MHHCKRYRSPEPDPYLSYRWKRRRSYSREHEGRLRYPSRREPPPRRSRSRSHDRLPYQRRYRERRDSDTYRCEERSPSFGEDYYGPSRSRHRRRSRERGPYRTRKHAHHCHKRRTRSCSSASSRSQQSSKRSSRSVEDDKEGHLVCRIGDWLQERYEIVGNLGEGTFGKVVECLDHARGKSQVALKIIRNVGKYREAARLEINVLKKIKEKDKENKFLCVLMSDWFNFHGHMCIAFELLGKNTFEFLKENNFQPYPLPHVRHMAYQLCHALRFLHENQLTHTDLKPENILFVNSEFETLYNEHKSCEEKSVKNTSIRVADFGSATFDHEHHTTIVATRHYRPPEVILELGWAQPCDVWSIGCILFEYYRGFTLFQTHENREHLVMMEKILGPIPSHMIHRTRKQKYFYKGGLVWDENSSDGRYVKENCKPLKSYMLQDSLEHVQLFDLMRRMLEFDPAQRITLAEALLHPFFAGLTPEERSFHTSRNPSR

In the case of `N=C1NC(=O)/C(=C/c2ccc3c(c2)CCO3)S1` [compound 1], in the assay with OAS1 splice variants, the “p42 variant suppressed (RNA-Seq)” value is 51%, the “p44a variant increased (RNA-Seq)” value is listed as 130% and the “p44b variant increased (RNA-Seq)” value was found to be 100%. Further, in assay [1], the “splice-switching for OAS1 with the A-allele (RT-PCR)” value was “suppressing p42 splicing while promoting p44a and p44b variant production”. The “transcription of IFNB1 during viral infection” value with IFNB1 is given as “increases”. Also, in assay [2], the “U1snRNP (U1-70k) binding to OAS1 exon 5 donor site” value was “enhanced” and the “phosphorylated SRSF6 in OAS1 SD pull-down products” value is given as “not detected”. In addition, in assay [3], the “28S rRNA peak fold change” value is recorded as 0.56 and the “concentration of decomposition products, sized 2,000-3,000 nucleotides, fold change” value stood at 1.35. In addition, at CLK2, the pIC50 is 7.17. Also, at CLK3, the pIC50 was 6.94.
